Key:
Test in all cases: relative viability (nuclei count vs DMSO), 5 days (fraction); higher = more cells survive
Cediranib + AZD7762 = compound: COc1cc2c(Oc3ccc4[nH]c(C)cc4c3F)ncnc2cc1OCCCN1CCCC1 [Cediranib] + NC(=O)Nc1cc(-c2cccc(F)c2)sc1C(=O)N[C@H]1CCCNC1 [AZD7762] (partner 0.2 µM)
Procedure, shortened: (§1)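 One day after seeding in 1536-well plates, lung cancer cell lines were dosed by pin tool. Dosing was either single-drug or a fixed anchor-drug dose plus five library-drug doses (not always all listed) in √10 steps. After 5 days, nuclei were stained in one fix-and-stain step and counted on 4× images, and relative viability is the nuclei count of treated wells over that of vehicle wells, given as the median of duplicate plates.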

Decitabine + Foretinib = compound: Nc1ncn([C@H]2C[C@H](O)[C@@H](CO)O2)c(=O)n1 [Decitabine] + COc1cc2c(Oc3ccc(NC(=O)C4(C(=O)Nc5ccc(F)cc5)CC4)cc3F)ccnc2cc1OCCCN1CCOCC1 [Foretinib] (partner 0.25 µM)
Procedure, shortened: as §1

Decitabine + Linsitinib = compound: Nc1ncn([C@H]2C[C@H](O)[C@@H](CO)O2)c(=O)n1 [Decitabine] + C[C@]1(O)C[C@@H](c2nc(-c3ccc4ccc(-c5ccccc5)nc4c3)c3c(N)nccn32)C1 [Linsitinib] (partner 1 µM)
Procedure, shortened: as §1

[1] = compound: O=C(C[C@H]1NCCC[C@@H]1O)Cn1cnc2cc(Br)c(Cl)cc2c1=O (racemic) [Halofuginone] + C[C@@H](Oc1cc(-c2cnn(C3CCNCC3)c2)cnc1N)c1c(Cl)ccc(F)c1Cl [Crizotinib] (partner 1 µM)
Procedure, shortened: as §1

Cell Line	relative viability (Cediranib + AZD7762; first compound 0.04 µM)	relative viability (Cediranib + AZD7762; first compound 0.1265 µM)	relative viability (Cediranib + AZD7762; first compound 0.4 µM)	relative viability (Cediranib + AZD7762; first compound 1.265 µM)	relative viability (Cediranib + AZD7762; first compound 4 µM)	relative viability (Decitabine + Foretinib; first compound 0.04 µM)	relative viability (Decitabine + Foretinib; first compound 0.1265 µM)	relative viability (Decitabine + Foretinib; first compound 0.4 µM)	relative viability (Decitabine + Foretinib; first compound 1.265 µM)	relative viability (Decitabine + Foretinib; first compound 4 µM)	relative viability (Decitabine + Linsitinib; first compound 0.04 µM)	relative viability (Decitabine + Linsitinib; first compound 0.1265 µM)	relative viability (Decitabine + Linsitinib; first compound 0.4 µM)	relative viability (Decitabine + Linsitinib; first compound 1.265 µM)	relative viability (Decitabine + Linsitinib; first compound 4 µM)	relative viability ([1]; first compound 0.001 µM)	relative viability ([1]; first compound 0.003162 µM)	relative viability ([1]; first compound 0.01 µM)	relative viability ([1]; first compound 0.03162 µM)	relative viability ([1]; first compound 0.1 µM)
NCI-H650	0.879	0.654	0.953	0.944	1.13	0.929	0.667	0.506	0.363	0.319	0.722	0.538	0.298	0.258	0.32	0.77	0.714	0.73	0.604	0.344
NCI-H727	0.601	0.379	0.636	0.626	0.538	0.669	0.675	0.651	0.775	0.483	0.303	0.232	0.302	0.282	0.234	0.689	1.04	0.771	0.574	0.234
NCI-H838	0.978	0.934	0.934	0.896	0.975	0.716	0.492	0.357	0.387	0.301	0.798	0.561	0.333	0.318	0.264	0.904	0.799	0.815	0.718	0.134
NCI-H1355	0.806	1.08	0.717	0.668	0.714	0.568	0.596	0.436	0.374	0.305	0.663	0.622	0.52	0.348	0.827	1.04	1.04	1.08	1.08	0.921
NCI-H1437	1.12	1.1	1.15	1.07	0.998	1.11	0.881	0.657	0.468	0.391	0.894	0.771	0.385	0.259	0.233	0.935	0.918	0.807	0.73	0.841
NCI-H1651	0.437	0.527	0.471	0.314	0.524	0.685	0.942	0.783	0.647	0.526	0.865	0.888	0.888	0.839	0.733	0.922	0.899	0.88	0.848	0.798
NCI-H1666	0.868	0.757	0.907	0.767	0.894	0.91	0.86	0.776	0.662	0.68	0.816	0.706	0.672	0.629	0.689	1.02	1.02	0.948	0.913	0.582
NCI-H1703	0.116	–	0.135	0.122	0.123	0.371	0.341	0.455	0.377	0.271	0.546	0.553	0.226	0.242	0.201	1.04	0.583	0.538	0.592	0.28
NCI-H1734	0.679	0.952	0.446	0.42	0.629	0.765	0.685	0.651	0.474	0.339	0.739	0.691	0.698	0.459	0.348	0.738	0.718	0.67	0.659	0.277
NCI-H1755	0.423	0.617	0.375	0.43	0.425	0.889	0.886	0.804	0.565	0.447	0.936	0.948	0.915	0.688	0.429	0.916	0.884	0.806	0.869	0.348
NCI-H1915	0.657	0.8	0.715	0.709	0.719	0.534	0.396	0.326	0.314	0.326	0.586	0.396	0.353	0.286	0.276	0.897	0.954	0.813	0.894	0.73
NCI-H1944	0.487	0.586	0.481	0.408	0.582	0.766	0.752	0.567	0.444	0.396	1.06	0.962	0.934	0.667	0.642	1.1	1.19	1.11	1.05	0.803
NCI-H1975	0.687	0.73	0.782	0.799	0.602	0.63	0.546	0.265	0.317	0.31	0.706	0.525	0.346	0.326	0.369	1.12	0.91	1.01	0.628	0.184
NCI-H1993	–	0.923	0.819	0.588	0.755	0.746	0.693	0.824	0.742	0.771	0.767	0.745	0.763	0.718	0.659	1.05	0.921	0.95	0.89	0.588
NCI-H2085	0.966	0.987	0.921	1.11	0.997	0.695	0.556	0.407	0.457	0.426	0.744	0.615	0.508	0.392	0.372	0.994	0.82	0.776	0.831	0.52
NCI-H2087	1.08	1.34	1.26	1.23	1.43	0.558	0.624	0.393	0.317	0.269	0.659	0.678	0.591	0.41	0.384	0.738	0.902	0.77	0.851	0.851
